Experiments:
[1] = system: HepG2 cells; experiment: Annexin V-FITC/PI dual staining, flow cytometry apoptosis; assay type: cell-based, human; conditions: 48 h
Method: HepG2 cells were treated with DMSO or different concentrations of 11m and 11t for 48 h, followed by staining with Annexin-V and PI. The proportion of apoptotic cells was then analyzed using flow cytometry. […] Compared to the control group, the proportion of apoptotic cells increased gradually with increasing drug concentrations (p < 0.01, p < 0.05).
HepG2 cells were seeded in 6-well plates at a density of […] and incubated for 24 h. They were then treated with 11m or 11t at concentrations of 2, 4, and 8 μM for 48 h. After digestion with trypsin without EDTA and washing with PBS, the cells were resuspended in 500 µL Binding Buffer at a concentration of 1 × 10^6 cells/mL. Then, 5 μL of Annexin V-FITC was added, mixed well, followed by the addition of 5 μL Propidium Iodide, mixed gently, and incubated in the dark at room temperature (25 °C) for 10 min. Detection was performed using a flow cytometer (BD Accuri™ C6 Plus) within 1 h.

[2] = system: p-H2AX in HepG2 cells; experiment: DNA damage immunofluorescence and Western blot of p-H2AX; assay type: cell-based, human; conditions: HepG2, 2, 4, 8 μM
Method: Previous studies have reported that the phosphorylation of H2AX is a highly specific and sensitive molecular marker of DNA damage. To determine whether the inhibitory effects of compounds 11m and 11t on HepG2 cells are related to p-H2AX, we conducted immunofluorescence and Western blot analyses.
HepG2 cells were seeded in laser confocal culture dishes (Nest, Wuxi, China) and incubated for 24 h, followed by treatment with 11m or 11t (2, 4, and 8 μM) for 24 h. After washing with PBS, cells were fixed with 4% paraformaldehyde at room temperature for 20 min. After washing with PBS, cells were permeabilized with 0.5% Triton X-100 for 20 min, followed by further washing with PBS. Cells were then blocked with goat serum at room temperature for 1 h, followed by incubation with p-H2AX (Cell Signaling Technology, Beverly, MA, USA) at a dilution of 1:500 overnight at 4 °C. After washing with PBS, cells were incubated with Cy3 (Proteintech, Wuhan, China) at a dilution of 1:100 in the dark at room temperature for 1 h. After washing with PBS, nuclei were stained with DAPI for 5 min. Cells were observed and imaged using an oil immersion lens under a laser confocal microscope (Nikon, Tokyo, Japan).
HepG2 cells were seeded in 6-well plates and incubated for 24 h. […] Protein supernatants were mixed with loading buffer, denatured at 100 °C for 10 min, and quantified using BCA. […]

[3] = system: Kunming mice; experiment: Acute toxicity test in mice; assay type: in vivo
Method: To further assess the safety of the compounds, we conducted an acute toxicity experiment on mice.
Liver function was evaluated by measuring serum glutamic pyruvic transaminase (GPT) and glutamic oxaloacetic transaminase (GOT) levels (Figure 10C). GPT and GOT are commonly used indicators for assessing liver function, reflecting physiological and pathological changes in the liver. Elevated serum levels of GPT and GOT indicate damage to liver cells or mitochondria. […] This provides additional evidence for the high safety of the compound and experimental data for clinical drug safety (p > 0.05).
Six 5-week-old, SPF-grade, healthy, male Kunming mice (31.13 ± 1.13 g) were purchased from Henan Skibest Biotechnology Co., Ltd. (Anyang, China) (License No.: SCXK (Yu) 2020-0005). They were housed at the SPF animal center of the School of Basic Medicine and Forensic Science, Henan University of Science and Technology, with normal solid food and drinking water provided, and a 12 h light–dark cycle each day. After one week of acclimatization, the mice were randomly divided into two groups: the control group and the treatment group (11t), which were administered a single gavage of the corresponding volume of solvent and drug (drug concentration: 800 mg/kg; drug solvent: 10% DMSO + 40% PEG300 + 5% Tween 80 + 45% saline) at a dosage of 0.1 mL/10 g. After administration, the mice’s activity was monitored daily, and their weight was recorded. After 14 days, blood was collected via the eye and the mice were euthanized by cervical dislocation. The heart, liver, spleen, lungs, and kidneys were extracted, rinsed with saline, and the surface moisture was absorbed with filter paper. The weight of all organs was measured using an electronic balance. The organ coefficient was calculated as organ weight/body weight × 100. Blood samples were left at room temperature for 1 h, then centrifuged at 2500 rpm for 20 min to measure liver function indicators GPT and GOT (Nanjing Jiancheng Bioengineering Institute, Nanjing, China). After weighing the organs, they were fixed in 4% tissue fixative for 24 h, dehydrated, cleared, embedded in paraffin, and stained with HE for microscopic observation of the tissues.

[4] = mice, single gavage 800 mg/kg, day 14

SMILES	melting point	total proportion of apoptotic HepG2 cells ([1]; 2 μM)	total proportion of apoptotic HepG2 cells ([1]; 4 μM)	total proportion of apoptotic HepG2 cells ([1]; 8 μM)	expression of p-H2AX [2]	toxicity in mice ([3]; acute toxicity, 800 mg/kg gavage)	body weight vs control group ([3]; mice, single gavage 800 mg/kg, 14 days, p > 0.05)	histological analysis (H&E) of hearts, livers, spleens, lungs, and kidneys [3, 4]	organ indices of the heart, liver, spleen, lungs, and kidneys vs control group [3, 4]	organ morphological examination [3, 4]	serum GPT and GOT (biochemical indicators) vs control group ([3]; mice, single gavage 800 mg/kg, day 14, p > 0.05)
COc1cc2ncnc(Nc3cccc(-c4cn(Cc5ccc(I)cc5)nn4)c3)c2cc1OCCCN1CCOCC1 [Compound 11m, N-(3-(1-(4-iodobenzyl)-1H-1,2,3-triazol-4-yl)phenyl)-7-methoxy-6-(3-morpholinopropoxy)quinazolin-4-amine]	185 to 186 °C	1.59%	9.46%	31.66%	increased	–	–	–	–	–	–
COc1cc2ncnc(Nc3cccc(-c4cn(Cc5cccc(I)c5)nn4)c3)c2cc1OCCCN1CCOCC1 [Compound 11t, N-(3-(1-(3-iodobenzyl)-1H-1,2,3-triazol-4-yl)phenyl)-7-methoxy-6-(3-morpholinopropoxy)quinazolin-4-amine]	–	13.44%	33.57%	62.82%	increased	low toxicity	no statistically significant differences	no significant toxic characteristics	no statistically significant differences	No pathological morphology was observed	no statistically significant differences
